For the test, the system named is HepG2. Nature of the test: Cytotoxicity against Homo sapiens (human) HepG2 cells after 3 days by MTT assay. In kind it is functional, cell-based. The note with it: HepG2, 72 h. (In general: Tetrazolium assays rely on reduction of a dye to a coloured formazan, in cell work by metabolically active cells.)
For `CCCCOc1c2c(c(-c3ccc4c(c3)OCO4)c3cc(OC)c(OC)cc13)C(=O)OC2`, 127 µM corresponded to half-maximal inhibition (IC50).

On to `CCOc1c2c(c(-c3ccc4c(c3)OCO4)c3cc(OC)c(OC)cc13)C(=O)OC2`, for which half-maximal inhibition (IC50) required 141 µM.

In the case of `COc1cc2c(OCCBr)c3c(c(-c4ccc5c(c4)OCO5)c2cc1OC)C(=O)OC3`, the concentration for half-maximal inhibition (IC50) – broadly, the concentration that inhibits the measured activity by half – turned out to be 263 µM.

Consider `CCCCCOc1c2c(c(-c3ccc4c(c3)OCO4)c3cc(OC)c(OC)cc13)C(=O)OC2`, for which inhibition was half-maximal at 291 µM (IC50).

Turning to `COc1cc2c(O)c3c(c(-c4ccc5c(c4)OCO5)c2cc1OC)C(=O)OC3` [DIPHYLLIN], the IC50 was more than 500 µM.

In turn, `COc1cc2c(OCCCBr)c3c(c(-c4ccc5c(c4)OCO5)c2cc1OC)C(=O)OC3` returned an IC50 of 161 µM.

`CCCOc1c2c(c(-c3ccc4c(c3)OCO4)c3cc(OC)c(OC)cc13)C(=O)OC2` had a half-inhibitory concentration (IC50) of 152 µM.

For `COc1cc2c(OCCCCCCBr)c3c(c(-c4ccc5c(c4)OCO5)c2cc1OC)C(=O)OC3`, the IC50 was 167 µM.

With `COc1cc([C@@H]2c3cc4c(cc3[C@@H](O[C@@H]3O[C@@H]5CO[C@@H](C)O[C@H]5[C@H](O)[C@H]3O)[C@H]3COC(=O)[C@H]23)OCO4)cc(OC)c1O` [ETOPOSIDE], the concentration for half-maximal inhibition (IC50) was found to be 427 µM.

Consider `COc1cc2c(OCCCCCBr)c3c(c(-c4ccc5c(c4)OCO5)c2cc1OC)C(=O)OC3`, for which it took 207 µM to reach half-maximal inhibition (IC50).

For the molecule `COc1cc2c(OCCCCBr)c3c(c(-c4ccc5c(c4)OCO5)c2cc1OC)C(=O)OC3`, the IC50 was determined as 155 µM.

In turn, `COc1cc2c(OC)c3c(c(-c4ccc5c(c4)OCO5)c2cc1OC)C(=O)OC3` [JUSTICIDIN A] showed a half-inhibitory concentration (IC50) of 163 µM.

The values above are taken from ChEMBL document CHEMBL3046333, “Synthesis and bioevaluation of novel analogues of justicidin A” (Med Chem Res, 2010).
